Key:
[1] = test system: Human immunodeficiency virus 1; test: Antiviral activity against DRV-resistant HIV1 NL4-3 VSV-G pseudotyped virus infected in human SUP-T1 cells assessed as inhibition of late stage viral production pretreated for 48 hrs followed by viral infection and measured after 48 hrs by luciferase assay; format: functional, organism-based; settings: Human immunodeficiency virus 1, NL4-3, SUP-T1
[2] = test system: Human immunodeficiency virus 1; test: Antiviral activity against wild-type HIV1 NL4-3 VSV-G pseudotyped virus infected in human SUP-T1 cells assessed as inhibition of late stage viral production pretreated with viral infected SUP-T1 cells for 48 hrs followed by reinfection in TZM-bl cells by luciferase reporter gene assay; format: functional, organism-based; settings: Human immunodeficiency virus 1, NL4-3, SUP-T1
[3] = test system: Human immunodeficiency virus 1; test: Antiviral activity against HIV1 NL4-3 VSV-G pseudotyped virus infected in human SUP-T1 cells assessed as inhibition of late stage viral production at 100 nM pretreated for 48 hrs followed by viral infection and measured after 48 hrs by luciferase assay relative to control; format: functional; settings: Human immunodeficiency virus 1, NL4-3, SUP-T1, time 96 hrs
[4] = biological target: Human immunodeficiency virus type 1 protease (Human immunodeficiency virus 1, UniProt Q72874); test: Inhibition of HIV1 protease expressed in Escherichia coli using Arg-Glu (EDANS)-Ser-Gln-Asn-Tyr-Pro-Ile-Val-Gln-Lys(DABCYL)-Arg as substrate preincubated for 20 to 30 mins followed by substrate addition and measured for 10 mins by FRET assay
[5] = test system: Human immunodeficiency virus 1; test: Antiviral activity against HIV1 NL4-3 VSV-G pseudotyped virus infected in human SUP-T1 cells assessed as inhibition of late stage viral production at 10 uM pretreated for 48 hrs followed by viral infection and measured after 48 hrs by luciferase assay relative to control; format: functional; settings: Human immunodeficiency virus 1, NL4-3, SUP-T1, time 96 hrs
[6] = Cytotoxicity against HEK293T cells assessed as reduction in cell viability measured after 24 hrs by CCK8 assay; format: toxicity, cell-based, HEK-293T; settings: human
[7] = test system: HIV1 protease; test: Selectivity index, ratio of CC50 for HEK293T cells to IC50 for inhibition of HIV1 protease expressed in Escherichia coli; format: toxicity; settings: human, read-out: Ratio CC50/IC50
[8] = Selectivity ratio of EC50 for antiviral activity against DRV-resistant HIV1 NL4-3 VSV-G pseudotyped virus infected in human SUP-T1 cells to EC50 for antiviral activity against wild-type HIV1 NL4-3 VSV-G pseudotyped virus infected in human SUP-T1 cells; format: functional, Human immunodeficiency virus 1
[9] = test system: Human immunodeficiency virus 1; test: Antiviral activity against HIV1 NL4-3 VSV-G pseudotyped virus infected in human SUP-T1 cells assessed as inhibition of early stage viral production at 10 uM measured after 48 hrs by luciferase assay relative to control; format: functional; settings: Human immunodeficiency virus 1, NL4-3, SUP-T1

CC(C)CN(C[C@@H](O)[C@H](Cc1ccccc1)NC(=O)O[C@H]1CO[C@H]2OCC[C@H]21)S(=O)(=O)c1ccc(N)cc1
EC50 [1]: 100 nM | EC50 [2]: 2.5 nM | inhibition at 0.1 µM [3]: 100%

CC(C)CN(C[C@@H](O)[C@H](Cc1ccccc1)NC(=O)c1ccc(Cl)cc1O)S(=O)(=O)c1ccc([N+](=O)[O-])cc1
IC50 [4]: 9.99 nM

CC(C)CN(C[C@@H](O)[C@H](Cc1ccccc1)NC(=O)c1ccc(Cl)cc1O)S(=O)(=O)c1ccc(F)cc1
inhibition at 10 µM [5]: 97.4% | IC50 [4]: 6.94 nM

COc1ccc(C(=O)N[C@@H](Cc2ccccc2)[C@H](O)CN(CC(C)C)S(=O)(=O)c2ccc([N+](=O)[O-])cc2)c(O)c1
IC50 [4]: 12.7 nM

CC(C)CN(C[C@@H](O)[C@H](Cc1ccccc1)NC(=O)c1cc(O)cc(O)c1)S(=O)(=O)c1ccc([N+](=O)[O-])cc1
CC50 at 24 h [6]: 86900 nM | IC50 [4]: 0.065 nM | selectivity ratio [7]: 1.34e+06

CC(C)CN(C[C@@H](O)[C@H](Cc1ccccc1)NC(=O)c1cc(O)c(O)c(O)c1)S(=O)(=O)c1ccc(C(F)(F)F)cc1
CC50 at 24 h [6]: > 100000 nM | IC50 [4]: 0.33 nM | selectivity ratio [7]: > 303000

CC(C)CN(C[C@@H](O)[C@H](Cc1ccccc1)NC(=O)c1cc(O)cc(O)c1)S(=O)(=O)c1ccc(F)cc1
EC50 [1]: 610 nM | CC50 at 24 h [6]: > 100000 nM | inhibition at 10 µM [5]: 100% | EC50 [2]: 740 nM | IC50 [4]: 0.021 nM | Ratio EC50 [8]: 0.82 | inhibition at 10 µM [9]: 2.6% | selectivity ratio [7]: > 4.76e+06

CC(C)CN(C[C@@H](O)[C@H](Cc1ccccc1)NC(=O)c1ccccc1O)S(=O)(=O)c1ccc(C(F)(F)F)cc1
IC50 [4]: 23 nM

COc1ccc(C(=O)N[C@@H](Cc2ccccc2)[C@H](O)CN(CC(C)C)S(=O)(=O)c2ccc(C(F)(F)F)cc2)c(O)c1
IC50 [4]: 16.2 nM

COc1cc(C(=O)N[C@@H](Cc2ccccc2)[C@H](O)CN(CC(C)C)S(=O)(=O)c2ccc([N+](=O)[O-])cc2)cc(OC)c1O
CC50 at 24 h [6]: > 100000 nM | IC50 [4]: 0.79 nM | selectivity ratio [7]: > 127000

COc1cc(C(=O)N[C@@H](Cc2ccccc2)[C@H](O)CN(CC(C)C)S(=O)(=O)c2ccc(F)cc2)cc(OC)c1O
CC50 at 24 h [6]: > 100000 nM | inhibition at 10 µM [5]: 84.2% | IC50 [4]: 0.32 nM | selectivity ratio [7]: > 312000

CC(C)CN(C[C@@H](O)[C@H](Cc1ccccc1)NC(=O)c1ccc(O)cc1O)S(=O)(=O)c1ccc(F)cc1
CC50 at 24 h [6]: > 100000 nM | inhibition at 10 µM [5]: 99.4% | IC50 [4]: 0.63 nM | selectivity ratio [7]: > 159000

CC(C)CN(C[C@@H](O)[C@H](Cc1ccccc1)NC(=O)c1ccc(O)cc1O)S(=O)(=O)c1ccc(C(F)(F)F)cc1
IC50 [4]: 8.82 nM

CC(C)CN(C[C@@H](O)[C@H](Cc1ccccc1)NC(=O)c1ccccc1O)S(=O)(=O)c1ccc([N+](=O)[O-])cc1
IC50 [4]: 13.3 nM

COc1ccc(C(=O)N[C@@H](Cc2ccccc2)[C@H](O)CN(CC(C)C)S(=O)(=O)c2ccc(F)cc2)c(O)c1
inhibition at 10 µM [5]: 82.2% | IC50 [4]: 8.34 nM

CC(C)CN(C[C@@H](O)[C@H](Cc1ccccc1)NC(=O)c1cc(O)cc(O)c1)S(=O)(=O)c1ccc(C(F)(F)F)cc1
CC50 at 24 h [6]: > 100000 nM | IC50 [4]: 0.078 nM | selectivity ratio [7]: > 1.28e+06

CC(C)CN(C[C@@H](O)[C@H](Cc1ccccc1)NC(=O)c1ccc(O)cc1O)S(=O)(=O)c1ccc([N+](=O)[O-])cc1
CC50 at 24 h [6]: > 100000 nM | IC50 [4]: 2.42 nM | selectivity ratio [7]: > 41300

COc1cc(O)c(C(=O)N[C@@H](Cc2ccccc2)[C@H](O)CN(CC(C)C)S(=O)(=O)c2ccc(C(F)(F)F)cc2)cc1OC
IC50 [4]: 11.4 nM

COc1cc(O)c(C(=O)N[C@@H](Cc2ccccc2)[C@H](O)CN(CC(C)C)S(=O)(=O)c2ccc(F)cc2)cc1OC
IC50 [4]: 11.5 nM

CC(C)CN(C[C@@H](O)[C@H](Cc1ccccc1)NC(=O)c1ccccc1O)S(=O)(=O)c1ccc(F)cc1
CC50 at 24 h [6]: > 100000 nM | inhibition at 10 µM [5]: 92.6% | IC50 [4]: 2.04 nM | selectivity ratio [7]: > 49000

CC(C)CN(C[C@@H](O)[C@H](Cc1ccccc1)NC(=O)c1ccc(O)c(O)c1)S(=O)(=O)c1ccc([N+](=O)[O-])cc1
CC50 at 24 h [6]: 35600 nM | IC50 [4]: 0.25 nM | selectivity ratio [7]: 142000

CC(C)CN(C[C@@H](O)[C@H](Cc1ccccc1)NC(=O)c1cc(O)c(O)c(O)c1)S(=O)(=O)c1ccc([N+](=O)[O-])cc1
CC50 at 24 h [6]: > 100000 nM | IC50 [4]: 0.73 nM | selectivity ratio [7]: > 137000

CC(C)CN(C[C@@H](O)[C@H](Cc1ccccc1)NC(=O)c1ccc(O)c(O)c1)S(=O)(=O)c1ccc(F)cc1
EC50 [1]: 2180 nM | CC50 at 24 h [6]: 57600 nM | inhibition at 10 µM [5]: 100% | EC50 [2]: 360 nM | IC50 [4]: 0.075 nM | Ratio EC50 [8]: 6.06 | inhibition at 10 µM [9]: 12.5% | selectivity ratio [7]: 768000

COc1cc(C(=O)N[C@@H](Cc2ccccc2)[C@H](O)CN(CC(C)C)S(=O)(=O)c2ccc(C(F)(F)F)cc2)cc(OC)c1O
IC50 [4]: 8.27 nM

CC(C)CN(C[C@@H](O)[C@H](Cc1ccccc1)NC(=O)c1ccc(Cl)cc1O)S(=O)(=O)c1ccc(C(F)(F)F)cc1
IC50 [4]: 6.23 nM

CC(C)CN(C[C@@H](O)[C@H](Cc1ccccc1)NC(=O)c1ccc(O)c(O)c1)S(=O)(=O)c1ccc(C(F)(F)F)cc1
CC50 at 24 h [6]: 38200 nM | IC50 [4]: 0.077 nM | selectivity ratio [7]: 496000

COc1cc(O)c(C(=O)N[C@@H](Cc2ccccc2)[C@H](O)CN(CC(C)C)S(=O)(=O)c2ccc([N+](=O)[O-])cc2)cc1OC
IC50 [4]: 13.7 nM
